Laboratory results: US4279822A, “N-(1-Substituted-3-pyrrolidinyl)benzamides” (A. H. Robins Company, Inc., priority 1976, dated 1981)
Like-named read-outs stand apart in the source and are kept apart here.

Tested on: apomorphine-induced emesis in dogs
Test: Reduction of apomorphine-induced emesis in dogs (anti-emetic effect)
Assay type: in vivo
Conditions: for ED50: Canis lupus familiaris, sc, 40 min, read-out: ED50, Anti-Emetic Effect of Subcutaneous Administration; for % Reduction in Emesis: 5 mg/kg s.c., percent reduction in emesis over that of controls
Method: The anti-emetic properties of the compounds of Formula I were established using a modification of the methods of Chen and Ensor, J. Pharmac. Exp. Ther. 98: 245-250 (1950) and of Leonard et al., J. Pharmac. Exp. Ther. 154: 339-345 (1966). Drug activity was assessed by its ability to reduce the frequency of apomorphine-induced emesis in dogs. The dogs were prescreened for fairly constant emetic responses to the subcutaneous administration of 0.1 mg/kg. of apomorphine hydrochloride, and those which vomited five or more times in the 40-minute period after apomorphine administration were selected for drug studies.
Groups of three dogs were used in preliminary tests and for the determinations of time of peak drug effect. Dose response curves were usually obtained using four drug-treated groups; each group contained at least three dogs. The dogs were fed approximately 17 hours prior to a test. Drugs were administered and at suitable intervals the dogs received 0.1 mg/kg of apomorphine hydrochloride subcutaneously. Frequency of emesis was determined during the next 40 minutes and emesis was counted as the actual expulsion of stomach contents.
In oral studies, drugs were administered in gelatin capsules (controls received an empty capsule). In the subcutaneous studies, drugs were administered in distilled water and/or polyethylene glycol-300.
Dogs were re-used at intervals of not less than one week. The ED50 is the dose which reduces the frequency of emesis of drug treated dogs to a value 50% below that of controls. Mean frequency of emesis for each drug treated group was compared with a mean control value derived by pooling the prior control emetic frequencies for all dogs used on that test day. The difference is expressed as a percentage decrease relative to controls. The percent decrease in mean frequency of emesis for each drug-treated group (ordinate) was plotted against log dose (abscissa) on semi-log graph sheets. The ED50 was calculated by the method of Goldstein (Biostatistics, An Introductory Test; Pages 156-161; The MacMillan Co., New York, 1964).

[1] = dogs, apomorphine hydrochloride 0.1 mg/kg s.c.

Work on `CC(=O)Nc1ccc(C(=O)NC2CCN(C3CCCCC3)C2)cc1` (stereo not drawn) [Example 4, N-(1-Cyclohexyl-3-pyrrolidinyl)-4-acetamidobenzamide] yielded an ED50 of 2.4 mg/kg.

`CNc1ccc(C(=O)N(C)C2CCN(C3CCCCC3)C2)cc1.Cl.Cl` (stereo not drawn) [Example 5, 4-Methylamino-N-(1-cyclohexyl-3-pyrrolidinyl)-N-methylbenzamide Dihydrochloride] gave an ED50 (dogs, s.c., doses expressed as free base, apomorphine hydrochloride 0.1 mg/kg s.c., 50% reduction of emesis frequency vs controls) of 0.05 mg/kg.

Compound `O=C(NC1CCN(C2CCCCC2)C1)c1cc([N+](=O)[O-])cc([N+](=O)[O-])c1` (stereo not drawn) [Example 6, N-(1-Cyclohexyl-3-pyrrolidinyl)-3,5-dinitrobenzamide] has an ED50 of 0.15 mg/kg.

`CS(=O)(=O)N(c1ccc(C(=O)NC2CCN(C3CCCCC3)C2)cc1)S(C)(=O)=O` (stereo not drawn) [Example 8, N-(1-Cyclohexyl-3-pyrrolidinyl)-4-[bis(methylsulfonyl)amino]benzamide] was tested, and the “% Reduction in Emesis” value [1] was -44%.

With `O=C(NC1CCN(C2CCCCC2)C1)c1ccc(Cl)cc1Cl` (stereo not drawn) [Example 14] the ED50 was 2.4 mg/kg.

For `CC(=O)Nc1cccc(C(=O)NC2CCN(C3CCCCC3)C2)c1` (stereo not drawn) [Example 33], the “% Reduction in Emesis” value [1] was -87%.

In the case of `CS(=O)(=O)Nc1ccc(C(=O)NC2CCN(C3CCCCC3)C2)cc1` (stereo not drawn) [Example 34], the “% Reduction in Emesis” value [1] was -86%.

With `CC(=O)Nc1ccccc1C(=O)NC1CCN(C2CCCCC2)C1` (stereo not drawn) [Example 35] the “% Reduction in Emesis” value [1] was -95%.

With `CC(=O)Nc1ccc(C(=O)NC2CCN(Cc3ccccc3)C2)cc1` (stereo not drawn) [Example 36] the “% Reduction in Emesis” value [1] was -59%.
